{"source": "paper PMC2826162", "about": "(Expert opinion on drug metabolism & toxicology, 2010)", "key": {"[1]": {"molecular_target": "T1, C334ACYP101 (Pseudomonas putida, UniProt P00183, C335A)", "T1 sequence (P00183 whole entry C335A)": "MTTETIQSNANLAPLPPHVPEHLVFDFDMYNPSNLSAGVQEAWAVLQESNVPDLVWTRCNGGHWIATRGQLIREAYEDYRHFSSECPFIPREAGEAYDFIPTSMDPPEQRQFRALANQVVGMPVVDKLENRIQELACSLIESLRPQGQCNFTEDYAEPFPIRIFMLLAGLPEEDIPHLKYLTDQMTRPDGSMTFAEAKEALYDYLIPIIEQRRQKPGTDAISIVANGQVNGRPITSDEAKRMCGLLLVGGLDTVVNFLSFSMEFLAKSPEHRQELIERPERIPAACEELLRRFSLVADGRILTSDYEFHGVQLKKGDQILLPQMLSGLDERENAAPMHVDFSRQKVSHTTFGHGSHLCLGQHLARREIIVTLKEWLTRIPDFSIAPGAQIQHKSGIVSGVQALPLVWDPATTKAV", "experiment": "biochemical", "format": "binding"}, "[2]": {"molecular_target": "T1, C334ACYP101", "experiment": "biochemical", "format": "binding", "remark": "listed apart in the source"}, "[3]": {"molecular_target": "T1, C334ACYP101", "format": "binding", "details": "for K4 apparent equilibrium constant: product (P) binding to ES; for K4 apparent equilibrium constant / K2 apparent equilibrium constant: pH 7.4, 24°C; for K2 apparent equilibrium constant: product binding to E; for K1K4: product of constants, ESP formed via ES"}, "[4]": {"system": "CYP101"}, "[5]": {"molecular_target": "T2, CYP2B4 (Oryctolagus cuniculus, UniProt P00178)", "T2 sequence (P00178 whole entry)": "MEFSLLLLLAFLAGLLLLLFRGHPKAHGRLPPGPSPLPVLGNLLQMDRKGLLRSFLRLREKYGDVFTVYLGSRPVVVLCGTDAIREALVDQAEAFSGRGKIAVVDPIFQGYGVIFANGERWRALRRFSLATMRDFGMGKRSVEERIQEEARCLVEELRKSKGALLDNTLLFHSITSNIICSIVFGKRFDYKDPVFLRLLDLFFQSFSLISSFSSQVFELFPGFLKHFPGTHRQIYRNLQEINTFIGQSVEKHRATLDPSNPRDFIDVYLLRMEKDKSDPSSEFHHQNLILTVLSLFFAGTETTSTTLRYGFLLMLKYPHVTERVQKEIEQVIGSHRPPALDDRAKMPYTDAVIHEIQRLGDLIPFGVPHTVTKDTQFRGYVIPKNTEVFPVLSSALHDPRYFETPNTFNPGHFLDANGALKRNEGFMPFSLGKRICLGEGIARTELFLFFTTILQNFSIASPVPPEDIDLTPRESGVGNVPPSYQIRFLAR", "details": "pH 7.4"}, "[6]": {"molecular_target": "T2, CYP2B4"}, "[7]": {"molecular_target": "T2, CYP2B4", "details": "cited from earlier work"}, "[8]": {"system": "CYP2B4", "details": "cited from earlier work"}, "[9]": {"system": "CYP2C9", "details": "cited from earlier work"}, "[10]": {"system": "CYP2C9", "details": "cited from earlier work", "remark": "listed apart in the source"}, "[11]": {"system": "CYP3A4", "details": "cited from earlier work"}, "[12]": {"system": "CYPC21 (steroid C-21 hydroxylase of bovine adrenocortical microsomes)", "details": "low spin to five coordinated high spin; cited from earlier work"}, "[13]": {"system": "CYP73As", "details": "cinnamate hydroxylation; cited from earlier work"}}, "note": "Read-outs that look alike come from different tables or passages of the source."}
{"smiles": "O=C1C2CC3CC(C2)CC1C3", "note": "[2 Adone, 2-Adamantanone]", "values": [{"measurement": "Kd", "setting": "[1]; KD^APP Transient, C334ACYP101, 10-13°C jump, 0.05 M K-PO4 buffer + 0.1 M KCl", "value": "6 ± 2", "unit": "µM"}, {"measurement": "Kd", "setting": "[2]", "value": "2.9 ± 0.2", "unit": "µM"}]}
{"smiles": "CC1(C)[C@H]2CC(=O)[C@]1(C)C[C@H]2O", "note": "[5exo OH Camphor, 5-exo-OH camphor]", "values": [{"measurement": "K4 apparent equilibrium constant", "setting": "[3]; OHcam 38 uM", "value": ".012 ± .001 µM⁻¹"}, {"measurement": "K2 apparent equilibrium constant", "setting": "[3]; OHcam 38 uM", "value": ".039 ± .002 µM⁻¹"}, {"measurement": "K1K4", "setting": "[3]; OHcam 38 uM", "value": ".0080"}, {"measurement": "K4 apparent equilibrium constant", "setting": "[3]; OHcam 66 uM", "value": ".0078 ± .0005 µM⁻¹"}, {"measurement": "K2 apparent equilibrium constant", "setting": "[3]; OHcam 66 uM", "value": ".030 ± .004 µM⁻¹"}, {"measurement": "K1K4", "setting": "[3]; OHcam 66 uM", "value": ".0049"}, {"measurement": "K4 apparent equilibrium constant", "setting": "[3]; OHcam 100 uM", "value": ".0063 ± .0004 µM⁻¹"}, {"measurement": "K2 apparent equilibrium constant", "setting": "[3]; OHcam 100 uM", "value": ".034 ± .002 µM⁻¹"}, {"measurement": "K1K4", "setting": "[3]; OHcam 100 uM", "value": ".0043"}, {"measurement": "K4 apparent equilibrium constant", "setting": "[3]; OHcam 133 uM", "value": ".0039 ± .0003 µM⁻¹"}, {"measurement": "K2 apparent equilibrium constant", "setting": "[3]; OHcam 133 uM", "value": ".034 ± .002 µM⁻¹"}, {"measurement": "K1K4", "setting": "[3]; OHcam 133 uM", "value": ".0024"}]}
{"smiles": "CC12CCC(CC1=O)C2(C)C", "note": "(stereo not drawn) [Cam, Camphor]", "values": [{"measurement": "peak to trough ratio of Type I difference spectrum", "setting": "[4]", "value": "~0.87"}, {"measurement": "Kd", "setting": "[1]; KD^APP Kinetic", "value": "6.2 ± 0.9", "unit": "µM"}, {"measurement": "Kd", "setting": "[1]; KD^APP Transient", "value": "5 ± 0.5", "unit": "µM"}, {"measurement": "Kd", "setting": "[2]", "value": "4.8 ± 0.8", "unit": "µM"}]}
{"smiles": "C[C@H](Cc1ccccc1)NCc1ccccc1", "note": "[DesBNZ, desmethylbenzphetamine]", "values": [{"measurement": "Kd", "setting": "[5]", "value": "701 ± 150", "unit": "µM"}, {"measurement": "binding of product formed in situ", "setting": "[6]", "value": "remains bound"}, {"measurement": "time of Site II re-ligation to form the final Type II complex (slow phase)", "setting": "[7]", "value": "≤ 20", "unit": "milliseconds"}, {"measurement": "strength of hetero atom binding to Site II (L6)", "setting": "[8]", "value": "as strongly as water"}]}
{"smiles": "CC(C(=O)O)c1ccc(-c2ccccc2)c(F)c1", "note": "(stereo not drawn) [Flurbiprofen, flurbiprofen]", "values": [{"measurement": "Type I spectral change in the CYP2C9", "setting": "[9]", "value": "elicits"}]}
{"smiles": "Nc1ccc(S(=O)(=O)c2ccc(NO)cc2)cc1", "note": "[N-hydroxydapsone]", "values": [{"measurement": "effect on coupling efficiency of flurbiprofen hydroxylation", "setting": "[10]", "value": "enhanced"}, {"measurement": "effect on flurbiprofen hydroxylation", "setting": "[10]", "value": "stimulating"}]}
{"smiles": "COc1cc2c(c3oc(=O)c4c(c13)CCC4=O)[C@@H]1C=CO[C@@H]1O2", "note": "[aflatoxin B1]", "values": [{"measurement": "effect on metabolism of α-NF by CYP3A4", "setting": "[11]", "value": "has no effect"}]}
{"smiles": "C[C@]12CCC(=O)C=C1CC[C@@H]1[C@@H]2CC[C@]2(C)C(=O)CC[C@@H]12", "note": "[androstenedione]", "values": [{"measurement": "Type I spectral change", "setting": "[12]", "value": "elicited"}]}
{"smiles": "O=C(O)/C=C/c1ccc(O)cc1", "note": "[coumerate]", "values": [{"measurement": "product inhibition of substrate hydroxylation", "setting": "[13]", "value": "not observable"}]}
{"smiles": "Nc1ccc(S(=O)(=O)c2ccc(N)cc2)cc1", "note": "[dapsone]", "values": [{"measurement": "Type I spectral change in the CYP2C9", "setting": "[9]; static spectroscopy", "value": "does not elicit"}, {"measurement": "effect on coupling efficiency of flurbiprofen hydroxylation", "setting": "[10]", "value": "enhanced"}, {"measurement": "effect on flurbiprofen hydroxylation", "setting": "[10]", "value": "stimulating"}]}
{"smiles": "C[C@]12CC[C@H]3[C@@H](CCC4=CC(=O)CC[C@@]43C)[C@@H]1CC[C@@H]2O", "note": "[testosterone]", "values": [{"measurement": "effect on metabolism of midazolum by CYP3A4", "setting": "[11]", "value": "inhibits"}]}
{"smiles": "O=c1cc(-c2ccccc2)oc2c1ccc1ccccc12", "note": "[α-NF, α-naphthoflavone]", "values": [{"measurement": "effect on metabolism of aflatoxin B1 by CYP3A4", "setting": "[11]", "value": "activates"}]}
